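Test compounds were applied to cells in 96-well plates for 48 hours at 5 doses. GI50 is the concentration that inhibits growth by half. TGI denotes the concentration required for complete inhibition of growth.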
What was measured:
Assay in all cases: NCI-60 cell line screen, 48 h
SF-268 CNS = tested on: SF-268 CNS
CCRF-CEM leukemia = tested on: CCRF-CEM leukemia
PC-3 prostate = tested on: PC-3 prostate
T-47D breast = tested on: T-47D breast
BT-549 breast = tested on: BT-549 breast
SN12C renal = tested on: SN12C renal
NCI/ADR-RES ovarian = tested on: NCI/ADR-RES ovarian
NCI-H460 lung = tested on: NCI-H460 lung
NCI-H522 lung = tested on: NCI-H522 lung
MOLT-4 leukemia = tested on: MOLT-4 leukemia
SK-OV-3 ovarian = tested on: SK-OV-3 ovarian
UO-31 renal = tested on: UO-31 renal
CAKI-1 renal = tested on: CAKI-1 renal
RXF 393 renal = tested on: RXF 393 renal
KM12 colon = tested on: KM12 colon
OVCAR-8 ovarian = tested on: OVCAR-8 ovarian
OVCAR-5 ovarian = tested on: OVCAR-5 ovarian
SNB-75 CNS = tested on: SNB-75 CNS
RPMI-8226 leukemia = tested on: RPMI-8226 leukemia
NCI-H23 lung = tested on: NCI-H23 lung
U251 CNS = tested on: U251 CNS
DU-145 prostate = tested on: DU-145 prostate
TK-10 renal = tested on: TK-10 renal
MALME-3M melanoma = tested on: MALME-3M melanoma
HCC-2998 colon = tested on: HCC-2998 colon
A549 NSCLC = tested on: A549 NSCLC
M14 melanoma = tested on: M14 melanoma
LOX IMVI melanoma = tested on: LOX IMVI melanoma
SNB-19 CNS = tested on: SNB-19 CNS
COLO 205 colon = tested on: COLO 205 colon
IGROV1 ovarian = tested on: IGROV1 ovarian
SK-MEL-5 melanoma = tested on: SK-MEL-5 melanoma
NCI-H226 lung = tested on: NCI-H226 lung
UACC-257 melanoma = tested on: UACC-257 melanoma
SR leukemia = tested on: SR leukemia
MDA-MB-231 breast = tested on: MDA-MB-231 breast
HS 578T breast = tested on: HS 578T breast
HOP-62 NSCLC = tested on: HOP-62 NSCLC
UACC-62 melanoma = tested on: UACC-62 melanoma
MDA-MB-435 = tested on: MDA-MB-435
OVCAR-3 ovarian = tested on: OVCAR-3 ovarian
K-562 leukemia = tested on: K-562 leukemia
A498 renal = tested on: A498 renal
HOP-92 NSCLC = tested on: HOP-92 NSCLC
HL-60(TB) leukemia = tested on: HL-60(TB) leukemia
786-0 renal = tested on: 786-0 renal
HCT-15 colon = tested on: HCT-15 colon
SW-620 colon = tested on: SW-620 colon
MCF7 breast = tested on: MCF7 breast
OVCAR-4 ovarian = tested on: OVCAR-4 ovarian
SK-MEL-2 melanoma = tested on: SK-MEL-2 melanoma
EKVX NSCLC = tested on: EKVX NSCLC
ACHN renal = tested on: ACHN renal
SK-MEL-28 melanoma = tested on: SK-MEL-28 melanoma
SF-295 CNS = tested on: SF-295 CNS
HCT-116 colon = tested on: HCT-116 colon
SF-539 CNS = tested on: SF-539 CNS
HT29 colon = tested on: HT29 colon

CCOC(=O)C#Cc1c(C(=O)OCC)nnn1Cc1ccc(C(F)(F)F)cc1
GI50 (SF-268 CNS): 8.12 µM | TGI (SF-268 CNS): 25.7 µM | GI50 (CCRF-CEM leukemia): 1.07 µM | TGI (CCRF-CEM leukemia): 4.92 µM | GI50 (PC-3 prostate): 9.38 µM | TGI (PC-3 prostate): 22 µM | GI50 (T-47D breast): 2.08 µM | TGI (T-47D breast): 5.66 µM | GI50 (BT-549 breast): 2.93 µM | TGI (BT-549 breast): 8.65 µM | GI50 (SN12C renal): 2.42 µM | TGI (SN12C renal): 6.08 µM | GI50 (NCI/ADR-RES ovarian): 7.49 µM | TGI (NCI/ADR-RES ovarian): 40.7 µM | GI50 (NCI-H460 lung): 11.5 µM | TGI (NCI-H460 lung): 27.1 µM | GI50 (NCI-H522 lung): 2.4 µM | TGI (NCI-H522 lung): 4.47 µM | GI50 (MOLT-4 leukemia): 1.73 µM | TGI (MOLT-4 leukemia): 6.85 µM | GI50 (SK-OV-3 ovarian): 19.4 µM | TGI (SK-OV-3 ovarian): 38.6 µM | GI50 (UO-31 renal): 1.8 µM | TGI (UO-31 renal): 3.47 µM | GI50 (CAKI-1 renal): 2.09 µM | TGI (CAKI-1 renal): 4.58 µM | GI50 (RXF 393 renal): 1.68 µM | TGI (RXF 393 renal): 3.24 µM | GI50 (KM12 colon): 11.8 µM | TGI (KM12 colon): 25.5 µM | GI50 (OVCAR-8 ovarian): 4.37 µM | TGI (OVCAR-8 ovarian): 15 µM | GI50 (OVCAR-5 ovarian): 9.75 µM | TGI (OVCAR-5 ovarian): 22 µM | GI50 (SNB-75 CNS): 9.31 µM | TGI (SNB-75 CNS): 21.4 µM | GI50 (RPMI-8226 leukemia): 2.53 µM | TGI (RPMI-8226 leukemia): 7.21 µM | GI50 (NCI-H23 lung): 11.5 µM | TGI (NCI-H23 lung): 27.6 µM | GI50 (U251 CNS): 10.9 µM | TGI (U251 CNS): 22.8 µM | GI50 (DU-145 prostate): 3.9 µM | TGI (DU-145 prostate): 15.1 µM | GI50 (TK-10 renal): 2.08 µM | TGI (TK-10 renal): 4.55 µM | GI50 (MALME-3M melanoma): 2.08 µM | TGI (MALME-3M melanoma): 4.9 µM | GI50 (HCC-2998 colon): 18.1 µM | TGI (HCC-2998 colon): 32.7 µM | GI50 (A549 NSCLC): 20.6 µM | TGI (A549 NSCLC): 39.2 µM | GI50 (M14 melanoma): 2.46 µM | TGI (M14 melanoma): 5.82 µM | GI50 (LOX IMVI melanoma): 0.692 µM | TGI (LOX IMVI melanoma): 2.09 µM | GI50 (SNB-19 CNS): 19.4 µM | TGI (SNB-19 CNS): 44.8 µM | GI50 (COLO 205 colon): 2.32 µM | TGI (COLO 205 colon): 5.29 µM | GI50 (IGROV1 ovarian): 14.2 µM | TGI (IGROV1 ovarian): 30.8 µM | GI50 (SK-MEL-5 melanoma): 9.92 µM | TGI (SK-MEL-5 melanoma): 21.5 µM | GI50 (NCI-H226 lung): 1.72 µM | TGI (NCI-H226 lung): 3.63 µM | GI50 (UACC-257 melanoma): 3.69 µM | TGI (UACC-257 melanoma): 11 µM | GI50 (SR leukemia): 1.06 µM | TGI (SR leukemia): 4.48 µM | GI50 (MDA-MB-231 breast): 4.05 µM | TGI (MDA-MB-231 breast): 14 µM | GI50 (HS 578T breast): 22.5 µM | TGI (HS 578T breast): 59.5 µM | GI50 (HOP-62 NSCLC): 17 µM | TGI (HOP-62 NSCLC): 32 µM | GI50 (UACC-62 melanoma): 1.93 µM | TGI (UACC-62 melanoma): 4.36 µM | GI50 (MDA-MB-435): 3.72 µM | TGI (MDA-MB-435): 14.5 µM | GI50 (OVCAR-3 ovarian): 1.73 µM | TGI (OVCAR-3 ovarian): 3.32 µM | GI50 (K-562 leukemia): 1.77 µM | TGI (K-562 leukemia): 8.3 µM | GI50 (A498 renal): 16.9 µM | TGI (A498 renal): 30.6 µM | GI50 (HOP-92 NSCLC): 2.53 µM | TGI (HOP-92 NSCLC): 5.7 µM | GI50 (HL-60(TB) leukemia): 1.3 µM | TGI (HL-60(TB) leukemia): 3.85 µM | GI50 (786-0 renal): 2.58 µM | TGI (786-0 renal): 6.29 µM | GI50 (HCT-15 colon): 1.95 µM | TGI (HCT-15 colon): 4.46 µM | GI50 (SW-620 colon): 2.08 µM | TGI (SW-620 colon): 4.36 µM | GI50 (MCF7 breast): 2.52 µM | TGI (MCF7 breast): 10.1 µM | GI50 (OVCAR-4 ovarian): 3.22 µM | TGI (OVCAR-4 ovarian): 11.7 µM | GI50 (SK-MEL-2 melanoma): 15.1 µM | TGI (SK-MEL-2 melanoma): 28.7 µM | GI50 (EKVX NSCLC): 16.6 µM | TGI (EKVX NSCLC): 31.2 µM | GI50 (ACHN renal): 1.92 µM | TGI (ACHN renal): 3.56 µM | GI50 (SK-MEL-28 melanoma): 2.47 µM | TGI (SK-MEL-28 melanoma): 5.91 µM | GI50 (SF-295 CNS): 17.5 µM | TGI (SF-295 CNS): 32.9 µM | GI50 (HCT-116 colon): 1.8 µM | TGI (HCT-116 colon): 3.5 µM

COC(=O)CCC(C)[C@H]1CCC2C3C(C[C@H](OC(C)=O)[C@@]21C)[C@@]1(C)CCC2(C[C@H]1C[C@H]3OC(C)=O)OOC1(CCC(C(C)(C)C)CC1)OO2 (some centres undefined)
TGI (SF-268 CNS): > 100 µM | TGI (CCRF-CEM leukemia): > 100 µM | TGI (PC-3 prostate): > 100 µM | TGI (T-47D breast): > 100 µM | TGI (BT-549 breast): > 100 µM | TGI (SN12C renal): > 100 µM | TGI (NCI/ADR-RES ovarian): > 100 µM | TGI (NCI-H460 lung): > 100 µM | TGI (NCI-H522 lung): > 100 µM | TGI (MOLT-4 leukemia): > 100 µM | TGI (SF-539 CNS): > 100 µM | TGI (SK-OV-3 ovarian): > 100 µM | TGI (UO-31 renal): 29 µM | TGI (CAKI-1 renal): > 100 µM | TGI (RXF 393 renal): > 100 µM | TGI (KM12 colon): > 100 µM | TGI (OVCAR-8 ovarian): > 100 µM | TGI (OVCAR-5 ovarian): > 100 µM | TGI (SNB-75 CNS): > 100 µM | TGI (RPMI-8226 leukemia): 45.2 µM | TGI (NCI-H23 lung): > 100 µM | TGI (U251 CNS): > 100 µM | TGI (DU-145 prostate): > 100 µM | TGI (TK-10 renal): > 100 µM | TGI (MALME-3M melanoma): > 100 µM | TGI (HCC-2998 colon): > 100 µM | TGI (A549 NSCLC): > 100 µM | TGI (M14 melanoma): > 100 µM | TGI (LOX IMVI melanoma): > 100 µM | TGI (SNB-19 CNS): > 100 µM | TGI (COLO 205 colon): > 100 µM | TGI (IGROV1 ovarian): 48.8 µM | TGI (SK-MEL-5 melanoma): > 100 µM | TGI (NCI-H226 lung): > 100 µM | TGI (UACC-257 melanoma): > 100 µM | TGI (SR leukemia): > 100 µM | TGI (MDA-MB-231 breast): > 100 µM | TGI (HS 578T breast): > 100 µM | TGI (HOP-62 NSCLC): 29 µM | TGI (HT29 colon): > 100 µM | TGI (MDA-MB-435): > 100 µM | TGI (OVCAR-3 ovarian): > 100 µM | TGI (K-562 leukemia): > 100 µM | TGI (A498 renal): > 100 µM | TGI (HOP-92 NSCLC): > 100 µM | TGI (HL-60(TB) leukemia): > 100 µM | TGI (786-0 renal): > 100 µM | TGI (HCT-15 colon): > 100 µM | TGI (SW-620 colon): > 100 µM | TGI (MCF7 breast): > 100 µM | TGI (OVCAR-4 ovarian): > 100 µM | TGI (SK-MEL-2 melanoma): > 100 µM | TGI (EKVX NSCLC): 30 µM | TGI (ACHN renal): > 100 µM | TGI (SK-MEL-28 melanoma): > 100 µM | TGI (SF-295 CNS): > 100 µM | TGI (HCT-116 colon): > 100 µM

From PubChem BioAssay (NCI)
